According to US20100323011A1, “PHARMACEUTICAL COMPOSITIONS OF A COMBINATION OF METFORMIN AND A DIPEPTIDYL PEPTIDASE-IV INHIBITOR” (priority 2008, published 2010):
Where a name gives a salt, the structure may show the parent alone.

Legend:
[1] = oral administration to human Type 2 diabetics; cited from earlier work
[2] = In vitro dissolution of sitagliptin phosphate from the drug film layer; type: physicochemical; conditions: FIG. 4

Compound | effect on fasting glucose, postprandial glucose excursion and HbA1c [1] | dissolution of sitagliptin phosphate compared with sitagliptin phosphate in JANUMET ([2]; comparator JANUMET (immediate-release metformin HCl and sitagliptin phosphate)) | time to complete dissolution of sitagliptin phosphate from the drug film layer ([2]; drug film layer of the composition) [min]
Cn1c(=O)cc(N2CCC[C@@H](N)C2)n(Cc2ccccc2C#N)c1=O [alogliptin] | reduce fasting glucose and postprandial glucose excursion | – | –
N[C@@H](CC(=O)N1CCn2c(nnc2C(F)(F)F)C1)Cc1cc(F)c(F)cc1F [sitagliptin phosphate, dihydrogenphosphate salt of (2R)-4-oxo-4-[3-(trifluoromethyl)-5,6-dihydro[1,2,4]triazolo[4,3-a]pyrazin-7(8H)-yl]-1-(2,4,5-trifluorophenyl)butan-2-amine] | – | comparable | ≤ 30
N[C@@H](CC(=O)N1CCn2c(nnc2C(F)(F)F)C1)Cc1cc(F)c(F)cc1F [sitagliptin, (2R)-4-oxo-4-[3-(trifluoromethyl)-5,6-dihydro[1,2,4]triazolo[4,3-a]pyrazin-7(8H)-yl]-1-(2,4,5-trifluorophenyl)butan-2-amine] | reduce fasting glucose and postprandial glucose excursion | – | –
N#C[C@@H]1CCCN1C(=O)CNC12CC3CC(CC(O)(C3)C1)C2 [vildagliptin] | reduce fasting glucose and postprandial glucose excursion | – | –
